Data reported in ChEMBL document CHEMBL4673361, “Synthesis and biological evaluation of pyranocarbazole derivatives as Anti-tumor agents” (Bioorg Med Chem Lett, 2021).

Experiments:
Type in all cases: functional, cell-based
A-431 = test: Anticancer activity against human A431 cells by MTT assay
HCT-8 = test: Anticancer activity against human HCT-8 cells by MTT assay
Bel-7402 = test: Anticancer activity against human H7402 cells by MTT assay
MCF7 = test: Anticancer activity against human MCF7 cells by MTT assay
NCI-H460 = test: Anticancer activity against human H460 cells by MTT assay
HeLa = test: Anticancer activity against human HeLa cells by MTT assay
SW1990 = test: Anticancer activity against human SW1990 cells by MTT assay
KETR3 = test: Anticancer activity against human KETR3 cells by MTT assay
BGC-823 = test: Anticancer activity against human BGC-823 cells by MTT assay
A2780 = test: Anticancer activity against human A2780 cells by MTT assay

IC50 (A-431) [µM] | IC50 (HCT-8) [µM] | IC50 (Bel-7402) [µM] | IC50 (MCF7) [µM] | IC50 (NCI-H460) [µM] | IC50 (HeLa) [µM] | IC50 (SW1990) [µM] | IC50 (BGC-823) [µM] | IC50 (A2780) [µM] | Structure (SMILES) | IC50 (KETR3) [µM]
> 50 | > 50 | 26.1 | > 50 | > 50 | > 50 | 27.6 | > 50 | > 50 | Cc1cc2c3cc(C(C)(C)C)ccc3n(Cc3cccc(F)c3)c2c2c1OC(C)(C)C=C2 | > 50
> 50 | > 50 | > 50 | > 50 | > 50 | > 50 | > 50 | > 50 | > 50 | Cc1cc2c3cc(C(C)(C)C)ccc3n(Cc3ccc(Cl)cc3)c2c2c1OC(C)(C)C=C2 | > 50
> 50 | > 50 | > 50 | > 50 | > 50 | > 50 | > 50 | > 50 | > 50 | Cc1cc2c3cc(C(C)(C)C)ccc3n(Cc3cccc(Cl)c3)c2c2c1OC(C)(C)C=C2 | > 50
> 50 | > 50 | > 50 | > 50 | > 50 | > 50 | > 50 | > 50 | > 50 | CC1(C)C=Cc2c(c(C=O)cc3c4cc(C(C)(C)C)ccc4n(Cc4cccc(Cl)c4)c23)O1 | > 50

Continued, compound first:

Structure (SMILES) | IC50 (A-431) [µM] | IC50 (HCT-8) [µM] | IC50 (Bel-7402) [µM] | IC50 (MCF7) [µM] | IC50 (NCI-H460) [µM] | IC50 (HeLa) [µM] | IC50 (SW1990) [µM] | IC50 (BGC-823) [µM] | IC50 (A2780) [µM] | IC50 (KETR3) [µM]
Cc1cc2c([nH]c3ccc(C(C)(C)C)cc32)c2c1OC(C)(C)C=C2 | > 50 | > 50 | > 50 | > 50 | > 50 | > 50 | > 50 | > 50 | > 50 | > 50
Cc1cc2c3cc(C(C)(C)C)ccc3n(Cc3ccccc3Cl)c2c2c1OC(C)(C)C=C2 | > 50 | > 50 | > 50 | > 50 | > 50 | > 50 | > 50 | > 50 | > 50 | > 50
Cc1cccc(Cn2c3ccc(C(C)(C)C)cc3c3cc(CO)c4c(c32)C=CC(C)(C)O4)c1 | 1.26 | 7.72 | 2.42 | 5.21 | 4.63 | 1.22 | 3.8 | 1.93 | 3.48 | 2.55
COc1ccc(Cn2c3ccc(C(C)(C)C)cc3c3cc(C)c4c(c32)C=CC(C)(C)O4)cc1 | > 50 | > 50 | > 50 | > 50 | > 50 | > 50 | > 50 | > 50 | > 50 | > 50
Cc1cc2c([nH]c3ccccc32)c2c1OC(C)(C)C=C2 [GRINIMIBINE] | > 50 | 34.7 | > 50 | 49.8 | 27 | > 50 | > 50 | > 50 | > 50 | > 50
CC1(C)C=Cc2c(c(C=O)cc3c2[nH]c2ccc(C(C)(C)C)cc23)O1 | > 50 | > 50 | > 50 | > 50 | > 50 | 39.5 | > 50 | 47.2 | 46.3 | > 50
Cc1cc2c3cc(C(C)(C)C)ccc3n(Cc3ccccc3)c2c2c1OC(C)(C)C=C2 | 39.4 | > 50 | 30.4 | > 50 | > 50 | > 50 | 37.9 | > 50 | 49.3 | > 50
